From PubChem BioAssay (NCI)
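Following 48 hours of exposure in 96-well plates, responses at five concentrations were used to interpolate endpoints linearly. TGI: total growth inhibition.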

Columns and labels:
Assay in all cases: NCI tumour cell line growth inhibition, 48 h
SW-620 colon = tested on: SW-620 colon
RXF 393 renal = tested on: RXF 393 renal
SF-268 CNS = tested on: SF-268 CNS
COLO 205 colon = tested on: COLO 205 colon
U251 CNS = tested on: U251 CNS
UO-31 renal = tested on: UO-31 renal
MALME-3M melanoma = tested on: MALME-3M melanoma
OVCAR-8 ovarian = tested on: OVCAR-8 ovarian
PC-3 prostate = tested on: PC-3 prostate
NCI-H226 lung = tested on: NCI-H226 lung
BT-549 breast = tested on: BT-549 breast
EKVX NSCLC = tested on: EKVX NSCLC
HT29 colon = tested on: HT29 colon
LOX IMVI melanoma = tested on: LOX IMVI melanoma
IGROV1 ovarian = tested on: IGROV1 ovarian
HCC-2998 colon = tested on: HCC-2998 colon
SR leukemia = tested on: SR leukemia
MCF7 breast = tested on: MCF7 breast
SK-MEL-5 melanoma = tested on: SK-MEL-5 melanoma
MDA-MB-435 = tested on: MDA-MB-435
SK-MEL-28 melanoma = tested on: SK-MEL-28 melanoma
786-0 renal = tested on: 786-0 renal
NCI-H460 lung = tested on: NCI-H460 lung
HOP-62 NSCLC = tested on: HOP-62 NSCLC
M14 melanoma = tested on: M14 melanoma
HCT-15 colon = tested on: HCT-15 colon
T-47D breast = tested on: T-47D breast
SK-MEL-2 melanoma = tested on: SK-MEL-2 melanoma
ACHN renal = tested on: ACHN renal
UACC-257 melanoma = tested on: UACC-257 melanoma
SN12C renal = tested on: SN12C renal
OVCAR-5 ovarian = tested on: OVCAR-5 ovarian
MDA-N = tested on: MDA-N
OVCAR-4 ovarian = tested on: OVCAR-4 ovarian
HS 578T breast = tested on: HS 578T breast
MOLT-4 leukemia = tested on: MOLT-4 leukemia
SNB-19 CNS = tested on: SNB-19 CNS
CCRF-CEM leukemia = tested on: CCRF-CEM leukemia
HCT-116 colon = tested on: HCT-116 colon
SF-295 CNS = tested on: SF-295 CNS
NCI-H23 lung = tested on: NCI-H23 lung
TK-10 renal = tested on: TK-10 renal
CAKI-1 renal = tested on: CAKI-1 renal
NCI-H522 lung = tested on: NCI-H522 lung
NCI/ADR-RES ovarian = tested on: NCI/ADR-RES ovarian
K-562 leukemia = tested on: K-562 leukemia
A549 NSCLC = tested on: A549 NSCLC
MDA-MB-231 breast = tested on: MDA-MB-231 breast
OVCAR-3 ovarian = tested on: OVCAR-3 ovarian
SNB-75 CNS = tested on: SNB-75 CNS
SK-OV-3 ovarian = tested on: SK-OV-3 ovarian
KM12 colon = tested on: KM12 colon
UACC-62 melanoma = tested on: UACC-62 melanoma
SF-539 CNS = tested on: SF-539 CNS
RPMI-8226 leukemia = tested on: RPMI-8226 leukemia
A498 renal = tested on: A498 renal
DU-145 prostate = tested on: DU-145 prostate
HL-60(TB) leukemia = tested on: HL-60(TB) leukemia

In the case of `COC(=O)CNC(=O)Nc1cc(N2C(=O)ON3C2C(C)(C)N(O)C3(C)C)ccc1C` (stereo unspecified), the TGI (SW-620 colon) is reported as > 100 µM, the TGI (RXF 393 renal) is reported as > 100 µM and the TGI (SF-268 CNS) is reported as > 100 µM. For the same compound, the TGI (COLO 205 colon) was > 100 µM, the TGI (U251 CNS) was > 100 µM and the TGI (UO-31 renal) was > 100 µM. The TGI (MALME-3M melanoma) was > 100 µM, the TGI (OVCAR-8 ovarian) was > 100 µM and the TGI (PC-3 prostate) was > 100 µM. The TGI (NCI-H226 lung) was > 100 µM, the TGI (BT-549 breast) was > 100 µM and the TGI (EKVX NSCLC) was > 100 µM. The TGI (HT29 colon) was > 100 µM, the TGI (LOX IMVI melanoma) was > 100 µM and the TGI (IGROV1 ovarian) was > 100 µM. For the same compound, the TGI (HCC-2998 colon) was > 100 µM, the TGI (SR leukemia) was > 100 µM and the TGI (MCF7 breast) was > 100 µM. The TGI (SK-MEL-5 melanoma) was > 100 µM, the TGI (MDA-MB-435) was > 100 µM and the TGI (SK-MEL-28 melanoma) was > 100 µM. The TGI (786-0 renal) was > 100 µM, the TGI (NCI-H460 lung) was > 100 µM and the TGI (HOP-62 NSCLC) was > 100 µM. For the same compound, the TGI (M14 melanoma) was > 100 µM, the TGI (HCT-15 colon) was > 100 µM and the TGI (T-47D breast) was > 100 µM. For the same compound, the TGI (SK-MEL-2 melanoma) was > 100 µM, the TGI (ACHN renal) was > 100 µM and the TGI (UACC-257 melanoma) was > 100 µM. The TGI (SN12C renal) was > 100 µM, the TGI (OVCAR-5 ovarian) was > 100 µM and the TGI (MDA-N) was > 100 µM. The TGI (OVCAR-4 ovarian) was > 100 µM, the TGI (HS 578T breast) was > 100 µM and the TGI (MOLT-4 leukemia) was > 100 µM. For the same compound, the TGI (SNB-19 CNS) was > 100 µM, the TGI (CCRF-CEM leukemia) was > 100 µM and the TGI (HCT-116 colon) was > 100 µM. The TGI (SF-295 CNS) was > 100 µM, the TGI (NCI-H23 lung) was > 100 µM and the TGI (TK-10 renal) was > 100 µM. For the same compound, the TGI (CAKI-1 renal) was > 100 µM, the TGI (NCI-H522 lung) was > 100 µM and the TGI (NCI/ADR-RES ovarian) was > 100 µM. For the same compound, the TGI (K-562 leukemia) was > 100 µM, the TGI (A549 NSCLC) was > 100 µM and the TGI (MDA-MB-231 breast) was > 100 µM. For the same compound, the TGI (OVCAR-3 ovarian) was > 100 µM, the TGI (SNB-75 CNS) was > 100 µM and the TGI (SK-OV-3 ovarian) was > 100 µM. The TGI (KM12 colon) was > 100 µM, the TGI (UACC-62 melanoma) was > 100 µM and the TGI (SF-539 CNS) was > 100 µM.
Work on `Oc1ccc2ccccc2c1Cc1c(O)ccc2ccccc12` yielded a TGI (SW-620 colon) of 39.9 µM, a TGI (RXF 393 renal) of 36 µM and a TGI (SF-268 CNS) of 31.1 µM. For the same compound, the TGI (COLO 205 colon) was 36.5 µM, the TGI (U251 CNS) was 34.4 µM and the TGI (UO-31 renal) was 32.2 µM. It also gave a TGI (MALME-3M melanoma) of 28.9 µM, a TGI (OVCAR-8 ovarian) of 36.9 µM and a TGI (PC-3 prostate) of 35.1 µM. It also gave a TGI (NCI-H226 lung) of 45.5 µM, a TGI (BT-549 breast) of 33.6 µM and a TGI (EKVX NSCLC) of 32.6 µM. The TGI (RPMI-8226 leukemia) was 40.4 µM, the TGI (A498 renal) was 39.4 µM and the TGI (HT29 colon) was 46.5 µM. The TGI (LOX IMVI melanoma) was 38.7 µM, the TGI (IGROV1 ovarian) was 13.4 µM and the TGI (HCC-2998 colon) was 40.6 µM. The TGI (MCF7 breast) was 53.9 µM, the TGI (SK-MEL-5 melanoma) was 32.1 µM and the TGI (MDA-MB-435) was 31.5 µM. For the same compound, the TGI (SK-MEL-28 melanoma) was 40.7 µM, the TGI (786-0 renal) was 41.7 µM and the TGI (NCI-H460 lung) was > 100 µM. For the same compound, the TGI (HOP-62 NSCLC) was 41.4 µM, the TGI (M14 melanoma) was 34.9 µM and the TGI (HCT-15 colon) was 32.7 µM. It also gave a TGI (T-47D breast) of 56.4 µM, a TGI (SK-MEL-2 melanoma) of 41.7 µM and a TGI (ACHN renal) of 33.8 µM. It also gave a TGI (UACC-257 melanoma) of 48.9 µM, a TGI (SN12C renal) of 34.6 µM and a TGI (OVCAR-5 ovarian) of 33.2 µM. The TGI (MDA-N) was 28.3 µM, the TGI (OVCAR-4 ovarian) was 30.6 µM and the TGI (HS 578T breast) was 34.4 µM. For the same compound, the TGI (MOLT-4 leukemia) was 36.9 µM, the TGI (SNB-19 CNS) was 36.7 µM and the TGI (CCRF-CEM leukemia) was 45.8 µM. It also gave a TGI (HCT-116 colon) of 34.4 µM, a TGI (SF-295 CNS) of 37.1 µM and a TGI (NCI-H23 lung) of 37.8 µM. It also gave a TGI (TK-10 renal) of 48.9 µM, a TGI (CAKI-1 renal) of 33.9 µM and a TGI (NCI-H522 lung) of 26 µM. The TGI (NCI/ADR-RES ovarian) was 37.4 µM, the TGI (K-562 leukemia) was 32.8 µM and the TGI (A549 NSCLC) was 39.9 µM. It also gave a TGI (MDA-MB-231 breast) of 40.9 µM, a TGI (OVCAR-3 ovarian) of 28.4 µM and a TGI (SNB-75 CNS) of 42.2 µM. For the same compound, the TGI (DU-145 prostate) was 38.1 µM, the TGI (SK-OV-3 ovarian) was 35 µM and the TGI (KM12 colon) was 43.9 µM. The TGI (HL-60(TB) leukemia) was 38.7 µM, the TGI (UACC-62 melanoma) was 29.4 µM and the TGI (SF-539 CNS) was 42.2 µM.
